{
  "source": "patent US20090247624A1",
  "about": "“FORMULATIONS OF RADIOPROTECTIVE ALPHA BETA UNSATURATED ARYL SULFONES” (Onconova Therapeutics Inc., priority 2006, published 2009)",
  "key": {"[1]": {"assay": "pH-solubility study (equilibrium solubility, pKa)", "type": "physicochemical", "settings": "for solubility thermodynamic: aqueous solution (buffer not named), thermodynamic from solid", "experimental": "(§1) A stability indicating HPLC assay is used during the preformulation studies. Preformulation studies include determination of microscopic and macroscopic properties, partition coefficient, pKa, pH-solubility, pH-stability, solid-state characterization and solid-state stability. XRD and thermal analyses re used to characterize the solid and solid-state stability. The solid-state stability as well as the pH stability of the drug is carried out at 75° C."}, "[2]": {"assay": "General physical properties: solubility in water", "type": "physicochemical", "source_text": "1210.Na. The example compound is a sodium salt of (E)-4-Carboxystyryl-4-chlorobenzylsulfone."}, "[3]": {"assay": "pH-stability study under accelerated conditions", "type": "physicochemical", "experimental": "as §1"}, "[4]": {"assay": "Octanol:water partition coefficient", "type": "physicochemical", "experimental": "as §1"}, "[5]": {"assay": "Half life by route of administration and as suspension", "type": "in vivo", "experimental": "When, ON.1210.Na, for example, is administered as a suspension described herein the half life of the drug is on the order of 30-40 hours depending on the specific formulation and its viscosity. This dramatic increase in half-life translates to prolonged exposure to drug over a period of 72 hours and beyond. This increase is possible because of an apparent low dissolution rate of drug from the site of administration."}, "[6]": {"assay": "Stability of solid drug after autoclaving (HPLC)", "type": "physicochemical", "settings": "autoclaved in a crimped vial", "experimental": "A solid drug sample (ON1210), after autoclaving in a crimped vial, is also evaluated for any degradation using the developed HPLC method. The sample, after autoclaving, is used to make a standard solution of 400 μg/mL and injected onto HPLC."}, "[7]": {"assay": "Saturated solubility of ON.1210.Na in different solvent systems", "type": "physicochemical", "settings": "for solubility at 24 h: 24 hours of equilibration; for solubility at 48 h: 48 hours of equilibration"}, "[8]": {"assay": "Solid-state stability of ON.1210.Na at 75° C.", "type": "physicochemical", "experimental": "as §1\nThe stability of ON.1210.Na in the solid state is determined by exposing the drug at 75° C. over a prolonged time. The sample is crimped in a 10 mL injection vial and kept at the above temperature. The sample is collected after 15 days and one month and reconstituted with diluting solution and its concentration is determined by HPLC. Appearance of any additional peak in the chromatogram is also noted. A control sample is represented by ON.1210.Na not exposed to 75° C. and reconstituted to a known concentration with diluting solution."}},
  "data": [
    {"smiles": "O=C([O-])c1ccc(/C=C/S(=O)(=O)Cc2ccc(Cl)cc2)cc1.[Na+]", "note": "[ON.1210.Na, (E)-4-Carboxystyryl-4-chlorobenzylsulfone, Sodium Salt]", "values": [
      {"measurement": "solubility thermodynamic", "setting": "[1]; aqueous buffer, pH 4.0", "value": 0.000154, "unit": "mg/mL"},
      {"measurement": "solubility thermodynamic", "setting": "[1]; aqueous buffer, pH 5.0", "value": 0.0379, "unit": "mg/mL"},
      {"measurement": "solubility thermodynamic", "setting": "[1]; aqueous buffer, pH 6.0", "value": 0.715, "unit": "mg/mL"},
      {"measurement": "solubility thermodynamic", "setting": "[1]; aqueous buffer, pH 8.0", "value": 16.8, "unit": "mg/mL"},
      {"measurement": "solubility thermodynamic", "setting": "[1]; aqueous buffer, pH 9.0", "value": 23.3, "unit": "mg/mL"},
      {"measurement": "solubility thermodynamic", "setting": "[1]; pH 7.4, aqueous buffer", "value": 11.1, "unit": "mg/mL"},
      {"measurement": "pKa", "setting": "[1]; calculated from pH-solubility studies", "value": "2.85 ± 0.6"},
      {"measurement": "solubility", "setting": "[2]", "value": "8 to 10", "unit": "mg/mL"},
      {"measurement": "pH-stability profile", "setting": "[3]; 75° C., Sodium Salt", "value": "better stability at neutral and biological pH but degradation is rapid under acidic condition"},
      {"measurement": "stability in aqueous environment", "setting": "[3]; biological pH", "value": "quite stable in an aqueous environment at biological pH"},
      {"measurement": "degradation rate order", "setting": "[3]; pH-stability study, Sodium Salt", "value": "pseudo-first-order rate"},
      {"measurement": "octanol:water partition coefficient", "setting": "[4]", "value": "1.28-2.87"},
      {"measurement": "half-life", "setting": "[5]; in vivo, administered as a suspension", "value": "30 to 40", "unit": "h"},
      {"measurement": "half life", "setting": "[5]; intramuscular in contrast to intravenous", "value": "increases significantly"},
      {"measurement": "half life", "setting": "[5]; subcutaneous administration, compared with intramuscular", "value": "increases even further"},
      {"measurement": "stability of bulk solid drug", "setting": "[6]", "value": "stable under the autoclaving conditions"},
      {"measurement": "solubility", "setting": "[7]; 0.25% Tween 80 in phosphate buffer, pH 8.45, aqueous with cosolvent or surfactant or cyclodextrin", "value": 9.5, "unit": "mg/mL"},
      {"measurement": "solubility", "setting": "[7]; 0.25% tween 80 in water, pH 8.87, aqueous with cosolvent or surfactant or cyclodextrin", "value": 10.5, "unit": "mg/mL"},
      {"measurement": "solubility", "setting": "[7]; 0.5% Tween 80 in phosphate buffer, pH 8.41, aqueous with cosolvent or surfactant or cyclodextrin", "value": 9.8, "unit": "mg/mL"},
      {"measurement": "solubility", "setting": "[7]; 0.5% tween 80 in water, pH 8.74, aqueous with cosolvent or surfactant or cyclodextrin", "value": 10.3, "unit": "mg/mL"},
      {"measurement": "solubility", "setting": "[7]; 1% (w/v) Povidone K 90 in water, pH 8.69, aqueous with cosolvent or surfactant or cyclodextrin", "value": 209, "unit": "mg/mL"},
      {"measurement": "solubility", "setting": "[7]; 1% PVP C 15, pH 8.86, aqueous with cosolvent or surfactant or cyclodextrin, thermodynamic from solid", "value": 26.9, "unit": "mg/mL"},
      {"measurement": "solubility", "setting": "[7]; 1% PVP C 30, pH 8.02, aqueous with cosolvent or surfactant or cyclodextrin, thermodynamic from solid", "value": 25.1, "unit": "mg/mL"},
      {"measurement": "solubility", "setting": "[7]; 1% Tween 80 in phosphate buffer, pH 8.45, aqueous with cosolvent or surfactant or cyclodextrin", "value": 8.9, "unit": "mg/mL"},
      {"measurement": "solubility", "setting": "[7]; 1% tween 80 in water, pH 8.82, aqueous with cosolvent or surfactant or cyclodextrin", "value": 10.1, "unit": "mg/mL"},
      {"measurement": "solubility", "setting": "[7]; 2% PVP C 15, pH 8.69, aqueous with cosolvent or surfactant or cyclodextrin, thermodynamic from solid", "value": 26.9, "unit": "mg/mL"},
      {"measurement": "solubility", "setting": "[7]; 2% Tween 80 in phosphate buffer, pH 8.39, aqueous with cosolvent or surfactant or cyclodextrin", "value": 9.7, "unit": "mg/mL"},
      {"measurement": "solubility", "setting": "[7]; 2% tween 80 in water, pH 8.78, aqueous with cosolvent or surfactant or cyclodextrin", "value": 9, "unit": "mg/mL"},
      {"measurement": "solubility", "setting": "[7]; 5% (w/v) Povidone K 90 in Water, pH 8.35, aqueous with cosolvent or surfactant or cyclodextrin", "value": 152, "unit": "mg/mL"},
      {"measurement": "solubility", "setting": "[7]; 10% PEG400:water, pH 8.24, aqueous with cosolvent or surfactant or cyclodextrin, thermodynamic from solid", "value": 36, "unit": "mg/mL"},
      {"measurement": "solubility", "setting": "[7]; 20% HPCD:20% PEG 400:60% water, pH 8.2, aqueous with cosolvent or surfactant or cyclodextrin", "value": 53.6, "unit": "mg/mL"},
      {"measurement": "solubility", "setting": "[7]; 25% PEG400:water, pH 8.01, aqueous with cosolvent or surfactant or cyclodextrin, thermodynamic from solid", "value": 39, "unit": "mg/mL"},
      {"measurement": "solubility", "setting": "[7]; 40% HPCD, pH 7.86, aqueous with cosolvent or surfactant or cyclodextrin", "value": 109, "unit": "mg/mL"},
      {"measurement": "solubility", "setting": "[7]; 50% PEG400:Buffer (0.01M), pH 8.2, aqueous with cosolvent or surfactant or cyclodextrin", "value": 20.8, "unit": "mg/mL"},
      {"measurement": "solubility", "setting": "[7]; 50% PEG400:Buffer (0.07M), pH 8.2, aqueous with cosolvent or surfactant or cyclodextrin", "value": 23.4, "unit": "mg/mL"},
      {"measurement": "solubility", "setting": "[7]; 50% PEG400:water, pH 7.53, aqueous with cosolvent or surfactant or cyclodextrin", "value": 40, "unit": "mg/mL"},
      {"measurement": "solubility", "setting": "[7]; 50:50 PEG400:ethanol, pH 8.46, organic solvent or mixture", "value": 37, "unit": "mg/mL"},
      {"measurement": "solubility", "setting": "[7]; 100% ethanol, pH 7.94, organic solvent or mixture", "value": 0.9, "unit": "mg/mL"},
      {"measurement": "solubility", "setting": "[7]; DMA:WATER:Ethanol (1:1:1), aqueous with cosolvent or surfactant or cyclodextrin", "value": 46.4, "unit": "mg/mL"},
      {"measurement": "solubility", "setting": "[7]; NN-Dimethyl Acetamide:Water:PEG 400 (1:2:2), pH 7.9, aqueous with cosolvent or surfactant or cyclodextrin", "value": 66.2, "unit": "mg/mL"},
      {"measurement": "solubility", "setting": "[7]; PEG300:ETH (70:30), pH 8.99, organic solvent or mixture", "value": 48.3, "unit": "mg/mL"},
      {"measurement": "solubility", "setting": "[7]; PEG 300:water (50:50), pH 4.5, aqueous with cosolvent or surfactant or cyclodextrin", "value": 30.6, "unit": "mg/mL"},
      {"measurement": "solubility", "setting": "[7]; PEG400:Benzyl alcohol (50:50), pH 8.19, organic solvent or mixture", "value": 51.6, "unit": "mg/mL"},
      {"measurement": "solubility", "setting": "[7]; PEG400:Ethanol 70:30, organic solvent or mixture", "value": 55.5, "unit": "mg/mL"},
      {"measurement": "solubility", "setting": "[7]; Propylene Glycol, organic solvent or mixture", "value": 44, "unit": "mg/mL"},
      {"measurement": "solubility", "setting": "[7]; Propylene glycol:water (50:50), pH 8.53, aqueous with cosolvent or surfactant or cyclodextrin", "value": 41.6, "unit": "mg/mL"},
      {"measurement": "solubility at 24 h", "setting": "[7]; aqueous with cosolvent or surfactant or cyclodextrin, thermodynamic from solid, 10% cyclodextran", "value": 46, "unit": "mg/mL"},
      {"measurement": "solubility at 24 h", "setting": "[7]; aqueous with cosolvent or surfactant or cyclodextrin, thermodynamic from solid, 20% cyclodextran", "value": 62, "unit": "mg/mL"},
      {"measurement": "solubility", "setting": "[7]; pH 8.21, organic solvent or mixture, PEG300 (IP10 g/kg)", "value": 52, "unit": "mg/mL"},
      {"measurement": "solubility at 24 h", "setting": "[7]; pH 8.32, aqueous with cosolvent or surfactant or cyclodextrin, thermodynamic from solid, 5% cyclodextran", "value": 39, "unit": "mg/mL"},
      {"measurement": "solubility", "setting": "[7]; pH 8.34, organic solvent or mixture, 100% PEG 400 (12 g/kg)", "value": 26, "unit": "mg/mL"},
      {"measurement": "solubility at 48 h", "setting": "[7]; pH 8.35, aqueous with cosolvent or surfactant or cyclodextrin, thermodynamic from solid, 20% cyclodextran", "value": 58, "unit": "mg/mL"},
      {"measurement": "solubility at 48 h", "setting": "[7]; pH 8.41, aqueous with cosolvent or surfactant or cyclodextrin, thermodynamic from solid, 10% cyclodextran", "value": 41, "unit": "mg/mL"},
      {"measurement": "solubility at 48 h", "setting": "[7]; pH 8.52, aqueous with cosolvent or surfactant or cyclodextrin, thermodynamic from solid, 5% cyclodextran", "value": 32, "unit": "mg/mL"},
      {"measurement": "solubility", "setting": "[7]; water, pH 8.4, water", "value": 11.8, "unit": "mg/mL"},
      {"measurement": "accelerated solid-state stability of bulk drug substance", "setting": "[8]", "value": "no evidence of degradation"}
    ]}
  ]
}
